For `Cc1cc(Oc2ccc([N+](=O)[O-])c(C)c2)n[nH]1`, the melting point was 114 to 117 °C. With `O=C(Nc1ccc(F)nc1)C1CC1` the melting point was 116 to 117 °C. `CCCc1nn(-c2ccc(C(F)(F)F)cn2)cc1CCCOc1ccc(CCC(=O)O)cc1OC` gave a melting point of 126 to 127 °C. Molecule `O=C(O)c1cccc(-c2ccc(Cl)c(C(=O)NCC34CC5CC(CC(C5)C3)C4)c2)c1` has a melting point of 255 to 257 °C. Work on `CC(C)COc1ccc(C(=O)N/C(=C\c2ccc(OC(F)F)cc2)C(=O)NCCO)cc1` yielded a melting point of 75 to 78 °C. `Cc1ccc(Cl)cc1N1CN(C(C)C)CN(C)C1=S` gave a melting point of 83 to 85 °C. Work on `NC(=O)c1c(Br)cc(Br)c(CCC(=O)O)c1Br` yielded a melting point of 197 °C. In the case of `O=C(NN1CCCCC1)C1=NN(c2ccc(Cl)cc2Cl)C(c2ccccc2)C1` (stereo not given), the melting point was 160 to 164 °C. With `CCn1c(=O)nc(-c2ccccc2)c2cc(Cl)ccc21` the melting point was 176 to 178 °C. Work on `Cc1cc(C)nc(NC2CCC(CCN3CCN(c4ccccc4)CC3)CC2)n1` (stereo not given) yielded a melting point of 127 to 129 °C. With `O=C(O)CCCCCc1cncc2ccccc12` the melting point was 131 to 132 °C. Molecule `CCc1cc(CC)c(N)cc1N` has a melting point of 49 to 51 °C. `CN(C)CCCOc1ccc(Nc2nccc(-c3ccncc3)n2)cc1` gave a melting point of 123 to 124 °C. With `CCCCOc1ccc(CCCCCC(=O)O)cc1` the melting point was 39 to 40 °C. For `O=C(Br)Cc1ccc(-c2cccc(Cl)c2)cc1`, the melting point was 63 to 65 °C. `O=C(CCCN1CC=C(c2ccccc2)CC1)c1cccnc1` showed a melting point of 64 to 66 °C. `CN1CCC(C2=Nc3ccccc3N(C)c3ccccc32)CC1` showed a melting point of 119 to 121 °C. Work on `O[C@@H](COc1ccccc1)CN(CCc1ccc(OCc2ccccc2)cc1)C[C@@H](O)COc1ccccc1` (racemic) yielded a melting point of 106 to 110 °C. Molecule `O=C(O)c1ccccc1Oc1cc(Cl)c(Cl)cc1NS(=O)(=O)c1ccc(Cl)cc1` has a melting point of 220 to 221 °C. `Cc1c(-c2ccccc2)oc2c(NC(=O)C(F)(F)F)cccc2c1=O` gave a melting point of 175 to 176 °C. Work on `CCCCc1nc(=O)c2cc(-c3nnn[nH]3)ccc2[nH]1` yielded a melting point of 225 °C. `Cc1cnc(CNC(=O)c2c(-c3ccccc3)c(-c3ccc(F)cc3)c(/C=C\[C@@H](O)C[C@@H](O)CC(=O)OC(C)(C)C)n2C(C)C)cn1` gave a melting point of 168 to 170 °C. In the case of `CCOC(=O)C=Cc1cnn2c(N(C)c3ccccc3)ncnc12`, the melting point was 139 °C. For `CC1CCCNC(=O)C1` (stereo not given), the melting point was 87 to 100 °C. `CS(=O)(=O)CCC(=O)NCc1ccc(/C=C/C(c2cc(Cl)c(Cl)c(Cl)c2)C(F)(F)F)cc1Cl` (stereo not given) showed a melting point of 101 to 104 °C. With `C#CCOc1c(CO)ccc2ccccc12` the melting point was 65 to 68 °C. `CCNC(=O)CC1CCN(Cc2cnc3cc(NC(=O)c4ccc(-c5ccc(F)cc5)cc4)c(C)cc3c2)CC1` showed a melting point of 251 °C. Work on `CC1(C)CCC(C)(C)c2cc(S(=O)(=O)n3c(CCCC(=O)O)cc4cc(Cl)ccc43)ccc21` yielded a melting point of 64 to 66 °C. In the case of `COC(=O)C(C)Nc1nc(Cl)ccc1[N+](=O)[O-]` (stereo not given), the melting point was 113 to 114 °C. `O=C(O)C(=O)CC(=O)c1cccn1Cc1ccc(Cl)cc1` gave a melting point of 182 to 184 °C. Work on `COc1cn(-c2ccc(-n3cc(F)c(F)c3)cc2F)nc(-c2ccnn2-c2ccccc2)c1=O` yielded a melting point of 212 to 214 °C. With `CC(C)(C)OC(=O)N1CCC2(CC1)Cn1cc([N+](=O)[O-])nc1O2` the melting point was 230 to 232 °C. Molecule `NC(=O)CC(=S)N1CCCC1` has a melting point of 110 to 120 °C. Work on `CCCCCc1cc2c(nc(O)n2CCCNC(C)=O)c(N)n1` yielded a melting point of 189 to 191 °C. `C[C@H]1CCCC(C)(C)[C@@H]1[C@@H](O)c1ccc(Cl)c(F)c1` showed a melting point of 61.1 to 63.6 °C. For `Clc1cc(Cl)n2c(-c3ccccc3)nc(Cl)c2n1`, the melting point was 133 to 134 °C. For `Cc1nc(-n2cnn(Cc3ccc(F)cc3)c2=O)sc1-c1nn[nH]n1`, the melting point was 136 to 139 °C. With `CC(=O)Nc1c(C(=O)c2cccc(Br)c2)[nH]c2cc(Cl)ccc12` the melting point was 183 to 184 °C. With `CNc1sc(-c2cccnc2)nc1C` the melting point was 84 to 87 °C. With `COc1ccc(-c2cc3cc(F)c(F)cc3[nH]2)cc1NCc1ccc([N+](=O)[O-])cc1` the melting point was 181 to 182 °C.
